Data: the supplement of paper PMC10702517
± gives the standard deviation.

Experiment: chemical recovery from spiked human plasma; higher = better extraction
Details: pooled human plasma
[1] = extraction method: SPE only (HLB 96-well)
[2] = extraction method: solvent precipitation (ACN + hexane)
[3] = extraction method: PES+SPE (3 d PDMS equilibration then HLB SPE)
[4] = extraction method: SPE only (HLB 96-well), PES comparison experiment

Row | chemical recovery [1] | chemical recovery [2] | chemical recovery [3] | chemical recovery [4] | SMILES
1 | 35.7 ± 2.3% | 42.3 ± 3.4% | – | – | Oc1cc(-c2ccc(Cl)cc2)ccc1Cl [3-Hydroxy-4,4'-dichlorobiphenyl]
2 | 0.288 ± 0.082% | – | 2.63 ± 2.7% | – | O=C(O)CCC(F)(F)C(F)(F)C(F)(F)F [3.3-FTCA]
3 | 43.2 ± 5.5% | – | 21.7 ± 5% | – | COc1cc(NC(=O)CC(C)=O)c(OC)cc1Cl [4'-Chloro-2',5'-dimethoxyacetoacetanilide]
4 | 2.12 ± 1.1% | – | – | – | CC(C)(c1ccccc1)c1ccc(Nc2ccc(C(C)(C)c3ccccc3)cc2)cc1 [4,4'-Bis(alpha,alpha-dimethylbenzyl)diphenylamine]
5 | 1.65 ± 0.55% | 30.1 ± 2.7% | 54.3 ± 19% | – | ClC=C(c1ccc(Cl)cc1)c1ccc(Cl)cc1 [4,4'-DDMU]
6 | 60 ± 5.2% | 64.5 ± 4% | 64.8 ± 5.4% | – | CC(=O)CCc1ccc(O)cc1 [4-(4-Hydroxyphenyl)butan-2-one]
7 | 2.53 ± 2.1% | 60.5 ± 4% | 0.689 ± 0.15% | – | CN(C)c1ccncc1 [4-(Dimethylamino)pyridine]
8 | 3.35 ± 3.7% | – | – | – | CC(=O)N1CCOCC1 [4-Acetylmorpholine]
9 | 32.7 ± 2.9% | 73.8 ± 2.2% | 27.3 ± 3.6% | – | Cc1cc(N)c2ccccc2n1 [4-Amino-2-methylquinoline]
10 | 63.7 ± 4.4% | – | 69.6 ± 6.2% | – | CN(C)S(=O)(=O)c1ccc(N)cc1 [4-Amino-N,N-dimethylbenzenesulfonamide]
11 | 45.4 ± 4.2% | 77.3 ± 4% | 51.6 ± 4% | – | CN(C)S(=O)(=O)c1ccc(N)cc1 [4-Amino-NN-dimethylbenzenesulfonamide]
12 | 8.59 ± 2.6% | 67.1 ± 4.8% | 6.85 ± 1.7% | – | Cc1c(N)c(=O)n(-c2ccccc2)n1C [4-Aminoantipyrine]
13 | 1.91 ± 0.31% | – | 1.74 ± 1.1% | – | Nc1ccc(Nc2ccccc2)cc1 [4-Aminodiphenylamine]
14 | 26.5 ± 3.5% | 55 ± 2.7% | 11 ± 2.9% | – | COc1cc(Cl)c(OC)cc1N [4-Chloro-2,5-dimethoxyaniline]
15 | 34.4 ± 4.1% | 69.5 ± 2.1% | 41.3 ± 3.5% | – | Cc1c(C=O)c(=O)n(-c2ccccc2)n1C [4-Formyl-antipyrine]
16 | 53 ± 4.1% | 77.7 ± 3.6% | 65.9 ± 5.4% | – | O=C(c1ccccc1)c1ccc(O)cc1 [4-Hydroxybenzophenone]
17 | 32.8 ± 2.4% | 3.14 ± 2.8% | – | 48 ± 8.1% | Oc1cccc2n[nH]nc12 [4-Hydroxybenzotriazole]
18 | 44.7 ± 1.7% | – | – | – | Oc1ccnc2ccccc12 [4-Hydroxyquinoline]
19 | 15.1 ± 2.4% | 23.6 ± 3.4% | 6.67 ± 1.6% | 18.2 ± 5.3% | CC(C)c1ccc(N)cc1 [4-Isopropylaniline]
20 | 39.5 ± 6.2% | 82.7 ± 14% | 45.3 ± 6.9% | – | COc1cc([N+](=O)[O-])ccc1O [4-Nitroguaiacol]
21 | 21.3 ± 1.8% | – | – | – | Oc1c(Cl)cc(Cl)c2cccnc12 [5,7-Dichloro-8-hydroxyquinoline]
22 | 10.5 ± 3.9% | 65 ± 2.7% | – | 18.3 ± 2.4% | Nc1cccc2cc(S(=O)(=O)O)ccc12 [5-Aminonaphthalene-2-sulfonic acid]
23 | 1.01 ± 0.069% | 58.3 ± 3.7% | – | – | Cc1c2ccccc2cc2c1cc(Br)c1ccccc12 [5-Bromo-7-methylbenzo[a]anthracene]
24 | 34.1 ± 2.7% | 72.4 ± 3.9% | 25.1 ± 5% | 31.2 ± 3.7% | c1ccc2c(c1)[nH]c1ccncc12 [5-Carboline]
25 | 12.2 ± 4.9% | – | 2.63 ± 3.2% | – | Oc1ccc(Cl)c2cccnc12 [5-Chloro-8-hydroxyquinoline]
26 | – | 39.3 ± 5.3% | – | – | Oc1ccc2[nH]ccc2c1 [5-Hydroxyindole]

Row | chemical recovery [1] | chemical recovery [2] | chemical recovery [3] | chemical recovery [4] | SMILES
27 | 50.5 ± 17% | 0.332 ± 0.35% | 79.2 ± 17% | – | O=C(O)c1cc(C(=O)O)cc([N+](=O)[O-])c1 [5-Nitroisophthalic-acid]
28 | 33.9 ± 7.6% | 70.3 ± 3.6% | 29 ± 4% | – | CC(C)N1C(=O)c2cc(O)ccc2NS1(=O)=O [6-Hydroxybentazone]
29 | 0.069 ± 0.0096% | 0.144 ± 0.25% | 0.00575 ± 0.005% | – | Sc1ncnc2nc[nH]c12 [6-Mercaptopurine]
30 | – | – | – | 45.1 ± 7.2% | C[C@]12CCC(=O)C=C1[C@H](O)C[C@@H]1[C@@H]2[C@@H](O)C[C@@]2(C)[C@H]1CC[C@]2(O)C(=O)CO [6-beta-Hydroxycortisol]
31 | 35.9 ± 1.7% | 75.6 ± 2.9% | – | 43.1 ± 5% | O=S(=O)(O)CCC(F)(F)C(F)(F)C(F)(F)C(F)(F)C(F)(F)C(F)(F)F [6.2 fluorotelomer sulfonic acid]
32 | 7.04 ± 2.1% | – | – | – | O=P(O)(OCCC(F)(F)C(F)(F)C(F)(F)C(F)(F)C(F)(F)C(F)(F)F)OCCC(F)(F)C(F)(F)C(F)(F)C(F)(F)C(F)(F)C(F)(F)F [6.2-Fluorotelomerphosphate-diester]
33 | 94 ± 5.9% | 78.3 ± 2.5% | 65.9 ± 13% | 47.7 ± 7.5% | CCN(CC)c1ccc2c(C)cc(=O)oc2c1 [7-Diethylamino-4-methylcoumarin]
34 | 38.6 ± 2.2% | 65.4 ± 3.4% | 51.1 ± 5.2% | – | C[C@H](CCC(=O)O)[C@H]1CC[C@H]2[C@@H]3C(=O)C[C@@H]4C[C@H](O)CC[C@]4(C)[C@H]3CC[C@]12C [7-Oxolithocholic-acid]
35 | 34 ± 2.1% | – | – | – | O=S(=O)(O)CCC(F)(F)C(F)(F)C(F)(F)C(F)(F)C(F)(F)C(F)(F)C(F)(F)C(F)(F)F [8.2-Fluorotelomersulfonic-acid]
36 | 0.0979 ± 0.085% | 10.9 ± 1.3% | – | – | Cc1ccc2c(c1)c1cccc3ccc4cccc2c4c31 [10-Methylbenzo[e]pyrene]
37 | 1.05 ± 0.96% | – | 0.458 ± 0.03% | 9.57 ± 8% | C[N+](C)(C)CC(O)CCl (stereo not given) [(3-Chloro-2-hydroxypropyl)trimethylammonium]
38 | – | – | – | 6.28 ± 4% | O=C(O)Cc1ccc(S(=O)(=O)O)cc1 [(4-Sulfophenyl)acetic acid]
39 | 10.4 ± 5.1% | – | 1.62 ± 1.1% | – | Oc1cc(O)c2c(c1)O[C@H](c1ccc(O)c(O)c1)[C@H](O)C2 [(-)-Epicatechin]
40 | – | 77 ± 3.4% | – | – | Nc1nc(NC2CC2)c2ncn([C@H]3C=C[C@@H](CO)C3)c2n1 [Abacavir]
41 | 42 ± 2.4% | 80.1 ± 3.5% | 40.3 ± 9.3% | – | CC(=O)Nc1ccccc1 [Acetanilide]
42 | 28.4 ± 1.4% | 49.6 ± 2.4% | 39.7 ± 8% | 51.6 ± 11% | c1ccc2nc3ccccc3cc2c1 [Acridine]
43 | 37.1 ± 7.2% | – | 5.97 ± 0.52% | 29.4 ± 6.9% | Nc1c(Br)cc(Br)cc1CN[C@H]1CC[C@H](O)CC1 [Ambroxol]
44 | – | 70.3 ± 3.4% | – | – | CCN1CCCC1CNC(=O)c1cc(S(=O)(=O)CC)c(N)cc1OC (stereo not given) [Amisulpride]
45 | 1.3 ± 0.4% | 44.7 ± 6% | – | – | C[C@@]12CCC[C@H]1[C@@H]1CC[C@H]3C[C@@H](O)CC[C@]3(C)[C@H]1CC2 [Androstanol]
46 | 5.69 ± 2.6% | 58.4 ± 13% | – | – | CC(C)(C)c1cc(Cn2c(=O)n(Cc3cc(C(C)(C)C)c(O)c(C(C)(C)C)c3)c(=O)n(Cc3cc(C(C)(C)C)c(O)c(C(C)(C)C)c3)c2=O)cc(C(C)(C)C)c1O [Antioxidant-3114]
47 | 14 ± 6.1% | 76 ± 2.5% | 17.1 ± 4.2% | – | CC(C)NCC(O)COc1ccc(CC(N)=O)cc1 (stereo not given) [Atenolol]
48 | 30.1 ± 3.9% | 61.7 ± 3% | 32.2 ± 9.6% | 41.1 ± 8.4% | CC(C)c1c(C(=O)Nc2ccccc2)c(-c2ccccc2)c(-c2ccc(F)cc2)n1CC[C@@H](O)C[C@@H](O)CC(=O)O [Atorvastatin]
49 | 8.77 ± 0.79% | – | – | – | COc1ccc(C(=O)CC(=O)c2ccc(C(C)(C)C)cc2)cc1 [Avobenzone]
50 | 53.1 ± 4% | – | – | – | O=C(O)CCCCCCCC(=O)O [Azelaic-acid]
51 | – | – | 5.01 ± 7.1% | – | Brc1cc(Br)c(Oc2c(Br)cc(Br)c(Br)c2Br)cc1Br [BDE183]
52 | – | 18.5 ± 1.6% | – | – | CCN(CCO)c1ccc(/N=N/c2sc3cc(OC)ccc3[n+]2C)cc1 [Basic-Blue-41]

Row | SMILES | chemical recovery [1] | chemical recovery [2] | chemical recovery [3] | chemical recovery [4]
53 | Cc1ccc2cc3c(ccc4ccccc43)c3c2c1CC3 [3-Methylcholanthrene] | 0.839 ± 0.34% | 58.3 ± 3.3% | – | –
54 | ClC(Cl)=C(c1ccc(Cl)cc1)c1ccc(Cl)cc1 [4,4'-DDE] | 0.779 ± 0.23% | 41.1 ± 2.4% | 49.3 ± 15% | –
55 | Clc1ccc(C(c2ccc(Cl)cc2)C(Cl)(Cl)Cl)cc1 [4,4'-DDT] | 3.49 ± 1.1% | 56.7 ± 8.1% | 81.7 ± 22% | –
56 | Nc1ccc(Cc2ccc(N)cc2)cc1 [4,4'-Methylenedianiline] | 9.55 ± 0.81% | 31.9 ± 11% | – | –
57 | Nc1ccc(Oc2ccc(N)cc2)cc1 [4,4'-Oxydianiline] | 8.07 ± 0.83% | 26.3 ± 9% | 0.849 ± 0.6% | –
58 | Clc1ccc(C(c2ccc(Cl)cc2)C(Cl)(Cl)Cl)cc1 [4,4-DDT] | – | – | – | 52.8 ± 20%
59 | CC(C)(c1ccccc1)c1ccc(O)cc1 [4-Cumylphenol] | 30.6 ± 7.2% | 46.6 ± 4.5% | – | –
60 | Oc1c(Cl)cc(-c2ccc(Cl)cc2)cc1Cl [4-Hydroxy-3,4',5-trichlorobiphenyl] | 36.1 ± 5.9% | 27.9 ± 1.8% | 46.3 ± 7.3% | –
61 | CC(C)(C)CC(C)(C)c1ccc(O)cc1 [4-Tert-Octylphenol] | 25.4 ± 2% | – | – | –
62 | CC1(C)C(=O)NC(=O)NC1=O [5,5-Dimethylbarbituric-acid] | 8.69 ± 8.3% | 39.8 ± 10% | 5.81 ± 5% | –
63 | CC(C)CC(C)NC1=CC(=O)C(Nc2ccccc2)=CC1=O (stereo not given) [6PPD-quinone] | 51.9 ± 4.4% | 79.3 ± 4% | 16.3 ± 4.4% | –
64 | CC1NC(C)(C)COC1(O)c1cccc(Cl)c1 [(S,S)-Hydroxybupropion] | 36.3 ± 2.2% | 59.9 ± 3.2% | 5.72 ± 0.93% | –
65 | c1cc2c3c(cccc3c1)CC2 [Acenaphthene] | 9.53 ± 0.88% | – | – | 3.64 ± 1.1%
66 | COP(=O)(NC(C)=O)SC (stereo not given) [Acephate] | 5.48 ± 5.2% | – | 3.58 ± 0.54% | –
67 | Nc1ccccc1 [Aniline] | 4.14 ± 2.7% | – | 4.94 ± 0.92% | –
